Reference: PubChem BioAssay (NCI)
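Each compound was tested at five concentrations against cells in 96-well plates for 48 hours. At the TGI there is no net growth.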

Tests used:
Assay in all cases: NCI-60 cell line screen, 48 h
A549 NSCLC = system: A549 NSCLC
OVCAR-8 ovarian = system: OVCAR-8 ovarian
COLO 205 colon = system: COLO 205 colon
PC-3 prostate = system: PC-3 prostate
HL-60(TB) leukemia = system: HL-60(TB) leukemia
786-0 renal = system: 786-0 renal
NCI-H226 lung = system: NCI-H226 lung
SF-268 CNS = system: SF-268 CNS
OVCAR-5 ovarian = system: OVCAR-5 ovarian
SK-MEL-2 melanoma = system: SK-MEL-2 melanoma
CCRF-CEM leukemia = system: CCRF-CEM leukemia
SN12C renal = system: SN12C renal
CAKI-1 renal = system: CAKI-1 renal
SK-MEL-28 melanoma = system: SK-MEL-28 melanoma
SF-539 CNS = system: SF-539 CNS
OVCAR-3 ovarian = system: OVCAR-3 ovarian
NCI-H23 lung = system: NCI-H23 lung
KM12 colon = system: KM12 colon
MALME-3M melanoma = system: MALME-3M melanoma
SW-620 colon = system: SW-620 colon
UO-31 renal = system: UO-31 renal
MDA-MB-435 = system: MDA-MB-435
RXF 393 renal = system: RXF 393 renal
SR leukemia = system: SR leukemia
IGROV1 ovarian = system: IGROV1 ovarian
NCI-H522 lung = system: NCI-H522 lung
EKVX NSCLC = system: EKVX NSCLC
M14 melanoma = system: M14 melanoma
NCI-H460 lung = system: NCI-H460 lung
UACC-257 melanoma = system: UACC-257 melanoma
DU-145 prostate = system: DU-145 prostate
HCT-116 colon = system: HCT-116 colon
MDA-N = system: MDA-N
TK-10 renal = system: TK-10 renal
HT29 colon = system: HT29 colon
HOP-92 NSCLC = system: HOP-92 NSCLC
T-47D breast = system: T-47D breast
NCI/ADR-RES ovarian = system: NCI/ADR-RES ovarian
HS 578T breast = system: HS 578T breast
OVCAR-4 ovarian = system: OVCAR-4 ovarian
A498 renal = system: A498 renal
UACC-62 melanoma = system: UACC-62 melanoma
SNB-75 CNS = system: SNB-75 CNS
SNB-19 CNS = system: SNB-19 CNS
ACHN renal = system: ACHN renal
K-562 leukemia = system: K-562 leukemia
SK-OV-3 ovarian = system: SK-OV-3 ovarian
U251 CNS = system: U251 CNS
MDA-MB-231 breast = system: MDA-MB-231 breast
HOP-62 NSCLC = system: HOP-62 NSCLC
HCC-2998 colon = system: HCC-2998 colon
MOLT-4 leukemia = system: MOLT-4 leukemia
SK-MEL-5 melanoma = system: SK-MEL-5 melanoma
LOX IMVI melanoma = system: LOX IMVI melanoma
MCF7 breast = system: MCF7 breast
SF-295 CNS = system: SF-295 CNS
HCT-15 colon = system: HCT-15 colon
RPMI-8226 leukemia = system: RPMI-8226 leukemia
BT-549 breast = system: BT-549 breast

Measured: TGI

CC(C)(C)[Si](C)(C)OCC1OC(n2cnc3c(=O)[nH]cnc32)CC1O (stereo unspecified)
not listed: BT-549 breast
> 100 µM: all other assays above

O=c1[nH]c2c(c(=O)[nH]1)SC(c1ccccc1)C2 (stereo unspecified)
not listed: SN12C renal | SR leukemia | TK-10 renal | T-47D breast | UACC-62 melanoma | SK-OV-3 ovarian
> 100 µM: all other assays above
